The record followed here is patent US20160317560A1, “PARTICLES CONTAINING PHOSPHOLIPIDS OR BIOACTIVE FATTY ACIDS AND USES THEREOF” (THE UNIVERSITY OF NORTH CAROLINA AT CHAPEL HILL, priority 2013, published 2016).

Entries after “also recorded” stand apart in the source; their conditions may differ.

The test system of experiment [1] is bone marrow derived mouse macrophages. The experiment can be described thus: Inflammasome activation in bone marrow derived mouse macrophages. Particulars: 1 μm and 80×320 nm particles; soluble form at the same dose; FIG. 19. The format is cell-based. An excerpt: FIG. 19. Anti-inflammatory Programming Particles.
Disclosed herein are data showing emergent properties when bioactive fatty acids and phospholipids are delivered via the particles described herein. […] Other phospholipids and bioactive fatty acids could have similar properties when particulated as described herein.

Experiment [2] relates to 2D2 T cells. The experiment can be described thus: Murine DC/T-cell co-culture (mouse dendritic cells and MOG-specific 2D2 T cells), T-cell activation and Treg induction. The format is cell-based. The following applies: for IFN-γ production by T cells: in the presence of MOG antigen, 50 μM PS (FIG. 11A). The source says:
FIG. 5 depicts a murine model of multiple sclerosis (2D2) for evaluating T-cell activation in murine DC/T-cell co-culture.
FIG. 11A-B depicts programming regulatory T cells with phosphatidylserine Nanoparticles. A) Flow plots of 2D2 T cells after co-stimulation with bone-marrow derived dendritic cells+/−the MOG peptide. […] (*=p<0.05).
Using a co-culture model with mouse dendritic cells and 2D2 T cells specific for the MOG-peptide, Th1-skewed IFN-γ producing T cells were turned into FOXP3+, IL-10 producing T regulatory cells (FIGS. 10 and 11). In the absence of antigen, roughly 20% of all T cells were programmed into anti-inflammatory IL-10 producing FOXP3+ regulatory T cells. This was about a 10-15 fold increase as compared to blank PLGA particles controls. This was about 4-5 fold increase over the soluble PS control at the same dose. This is an exceptionally high % of T regulatory cells in any in vitro or in vivo system.
In the presence of soluble MOG antigen, about 10% of T cells produced IFN-γ in the blank 80×320 nm PLGA control group. […] The presence of antigen led to a 10% IL-10+, FOXP3+ T regulatory population in the presence of blank PLGA particles or soluble PS. PS-PLGA particles induced 2 fold higher levels of this regulatory T cell population, about 20% of all T cells.

Experiment [3] concerns primary progressive multiple sclerosis. The experiment can be described thus: Murine model of primary progressive multiple sclerosis. The format is in vivo. Particulars: 14 day study. The source says:
FIG. 15 depicts a murine model of primary progressive multiple sclerosis. Reproduced from the Reeves Foundation. FIG. 16 provides data showing PS-loaded particles reduce MS symptoms. The study was 14 days to emphasize the suppression of the neuroinflammation ramp-up during the model.

In the case of `CCCCCCCC/C=C\CCCCCCCC(=O)O[C@H](COC(=O)CCCCCCCCCCCCCCCCC)COP(=O)(O)OC[C@H](N)C(=O)[O-].[Na+]` [PS SOL, Phosphatidylserine], the “inflammasome activation / signaling” value in experiment [1] is recorded as “exacerbated inflammation”. Further, in experiment [2] (FIG. 11A, 50 μM PS), the “FOXP3+ T cells” value was “not seen”. Further, the “IFN-γ production by T cells” value in experiment [2] is reported as “inhibit IFN-γ production”; in experiment [2] (listed as soluble PS) it was “inhibited to baseline levels; also recorded: can inhibit IFN-γ as well as particulate PS”; in experiment [2] (listed as soluble phosphatidylserine (PS)) it was “dampen IFN-γ production”. The “IL-10+, FOXP3+ T regulatory population, % of all T cells” value in experiment [2] (presence of soluble MOG antigen) came out at 10%. Also, in experiment [3] ((+/−)), the “Maximum Score” value is given as 0.8 (+/−0.2). Further, the “Disease Incidence” value in experiment [3] ((affected/total animals)) is listed as 83% (10/12).
